Data from PubChem BioAssay AID264 (DTP/NCI, 2004).
Values joined by “and” are separate entries in the source; they are usually repeats but may differ in a detail not shown here. Identical values can stand only once. Records with an inconclusive call do not appear. Numbered stars: 1 amine (or outer) side, 2 acyl side, 3 side chain; on linkers, the order of the positions; unused ones are H or OH. Square brackets hold non-standard residues; d marks the D form. Peptide text beside a SMILES is read from it. * marks the point of attachment. X2 = CCC(=O)CC1CC(C)CC(C(=O)[*:2])N1[*:1]; X1 = CCCCCCCCC(C)C(=O)*; Aib = CC(C)(N)C(=O)O; X3 = CC(CN(C)CCO)N*

Tested on: nude mice, LX-1 lung xenograft intrarenal, tumor weight T/C
Test: NCI In Vivo Anticancer Drug Screen. Data for tumor model Human Lung LX-1 Xenograft (intrarenal inoculation) in NU/NU Swiss (nude) mice
Details: endpoint: mean tumor weight change, higher = larger tumour
Method in brief: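 Readout: T/C, i.e. treated-group tumor measurement over vehicle-control measurement. Mice bearing transplantable tumors were dosed with compound or vehicle.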

[1] = dose: 300.0 mg/kg/injection, schedule: Q04DX003 (sc), vehicle: Klucel (hydroxypropylcellulose) (HPC)
[2] = dose: 600.0 mg/kg/injection, schedule: Q04DX003 (sc), vehicle: Klucel (hydroxypropylcellulose) (HPC)
[3] = dose: 1200.0 mg/kg/injection, schedule: Q04DX003 (sc), vehicle: Klucel (hydroxypropylcellulose) (HPC)
[4] = dose: 12.5 mg/kg/injection, schedule: Q01DX010 (sc), vehicle: saline
[5] = dose: 100.0 mg/kg/injection, schedule: Q01DX010 (sc), vehicle: saline

With `C[C@@H]1C[C@H]2[C@@H]3CCC4=CC(=O)C=C[C@]4(C)[C@@]3(F)[C@@H](O)C[C@]2(C)[C@@]1(O)C(=O)CO` the T/C (dose: 1.56 mg/kg/injection, schedule: Q01DX010 (sc), vehicle: Klucel (hydroxypropylcellulose) (HPC)) was 41 % of control, the T/C (dose: 3.13 mg/kg/injection, schedule: Q01DX010 (sc), vehicle: Klucel (hydroxypropylcellulose) (HPC)) was 32 % of control and the T/C (dose: 6.25 mg/kg/injection, schedule: Q01DX010 (sc), vehicle: Klucel (hydroxypropylcellulose) (HPC)) was 33 % of control. The T/C (dose: 12.5 mg/kg/injection, schedule: Q01DX010 (sc), vehicle: Klucel (hydroxypropylcellulose) (HPC)) was 26 % of control.

For `C=C(C)[C@@H]1CCc2c(O)c(O)c(=O)cc(C)c2C1`, the T/C (dose: 300.0 mg/kg/injection, schedule: Q04DX003 (sc), vehicle: saline) was 106 % of control, the T/C (dose: 600.0 mg/kg/injection, schedule: Q04DX003 (sc), vehicle: saline) was 62 % of control and the T/C (dose: 1200.0 mg/kg/injection, schedule: Q04DX003 (sc), vehicle: saline) was 90 % of control. For the same compound, the T/C (dose: 2400.0 mg/kg/injection, schedule: Q04DX003 (sc), vehicle: saline) was 85 % of control.

With `CCC(=O)O[C@H]1CC[C@H]2[C@@H]3CCC4=CC(=O)CC[C@]4(C)[C@H]3CC[C@]12C` the T/C [1] was 77 % of control, the T/C [2] was 59 % of control and the T/C [3] was 65 % of control. For the same compound, the T/C (dose: 2400.0 mg/kg/injection, schedule: Q04DX003 (sc), vehicle: Klucel (hydroxypropylcellulose) (HPC)) was 69 % of control.

For `O=CC(NC(=O)N(CCCl)N=O)C(O)C(O)C(O)CO` (centres undefined), the T/C (dose: 1.5 mg/kg/injection, schedule: Q01DX010 (sc), vehicle: Klucel (hydroxypropylcellulose) (HPC)) was 208 % of control, the T/C (dose: 6.0 mg/kg/injection, schedule: Q01DX010 (sc), vehicle: Klucel (hydroxypropylcellulose) (HPC)) was 20 % of control and 45 % of control and the T/C (dose: 12.0 mg/kg/injection, schedule: Q01DX010 (sc), vehicle: Klucel (hydroxypropylcellulose) (HPC)) was -23 % of control.

In the case of `O=C1NC(c2ccccc2)N=C2Oc3ccccc3C=C12` (centres undefined), the T/C (dose: 12.5 mg/kg/injection, schedule: Q01DX010 (sc), vehicle: saline with Tween-80) is reported as 186 % of control, the T/C (dose: 25.0 mg/kg/injection, schedule: Q01DX010 (sc), vehicle: saline with Tween-80) is reported as 123 % of control and the T/C (dose: 50.0 mg/kg/injection, schedule: Q01DX010 (sc), vehicle: saline with Tween-80) is reported as 85 % of control. The T/C (dose: 100.0 mg/kg/injection, schedule: Q01DX010 (sc), vehicle: saline with Tween-80) was 105 % of control and the T/C (dose: 200.0 mg/kg/injection, schedule: Q01DX010 (sc), vehicle: saline with Tween-80) was 58 % of control.

For `Nc1n[n+](-c2ccc(Cl)cc2)no1`, the T/C (dose: 25.0 mg/kg/injection, schedule: Q04DX003 (sc), vehicle: water) was 102 % of control and the T/C (dose: 100.0 mg/kg/injection, schedule: Q04DX003 (sc), vehicle: water) was 95 % of control.

`Cc1c2cc[n+](CCN3CCCCC3)cc2c(C)c2c1[nH]c1ccc(O)cc12` was tested, and the T/C (dose: 50.0 mg/kg/injection, schedule: Q04DX003 (sc), vehicle: suspension in saline) was 83 % of control and the T/C (dose: 100.0 mg/kg/injection, schedule: Q04DX003 (sc), vehicle: suspension in saline) was 68 % of control.

`CC1OC(OC2CC(O)(C(=O)CO)Cc3c(O)c4c(c(O)c32)C(=O)c2ccccc2C4=O)CC(N)C1O` (centres undefined) was tested, and the T/C (dose: 0.5 mg/kg/injection, schedule: Q01DX010 (sc), vehicle: water) was 57 % of control and the T/C (dose: 1.0 mg/kg/injection, schedule: Q01DX010 (sc), vehicle: water) was 83 % of control.

For `COc1cc2c(c(OC)c1OC)-c1ccc(OC)c(=O)cc1[C@@H](NC(=O)CCl)CC2`, the T/C (dose: 1.25 mg/kg/injection, schedule: Q04DX003 (sc), vehicle: saline with Tween-80) was 76 % of control, the T/C (dose: 2.5 mg/kg/injection, schedule: Q04DX003 (sc), vehicle: saline with Tween-80) was 77 % of control and the T/C (dose: 5.0 mg/kg/injection, schedule: Q04DX003 (sc), vehicle: saline with Tween-80) was 42 % of control.

`CO[C@H](C(=O)[C@@H](O)[C@@H](C)O)[C@@H]1Cc2cc3cc(OC4CC(OC5CC(O)C(O)C(C)O5)C(O)C(C)O4)c(C)c(O)c3c(O)c2C(=O)[C@H]1OC1CC(OC2CC(OC3CC(C)(O)C(O)C(C)O3)C(O)C(C)O2)C(O)C(C)O1` (some centres undefined) was tested, and the T/C (dose: 0.25 mg/kg/injection, schedule: Q01DX010 (sc), vehicle: saline) was 120 % of control, the T/C (dose: 0.25 mg/kg/injection, schedule: Q04DX003 (sc), vehicle: saline) was 76 % of control and the T/C (dose: 0.5 mg/kg/injection, schedule: Q04DX003 (sc), vehicle: saline) was 87 % of control. For the same compound, the T/C (dose: 0.75 mg/kg/injection, schedule: Q04DX003 (sc), vehicle: saline) was 101 % of control, the T/C (dose: 1.0 mg/kg/injection, schedule: Q04DX003 (sc), vehicle: saline) was 96 % of control and the T/C (dose: 1.5 mg/kg/injection, schedule: Q04DX003 (sc), vehicle: saline) was 78 % of control. The T/C (dose: 2.0 mg/kg/injection, schedule: Q01DX010 (sc), vehicle: saline) was -51 % of control, the T/C (dose: 2.0 mg/kg/injection, schedule: Q04DX003 (sc), vehicle: saline) was 20 % of control and the T/C (dose: 3.0 mg/kg/injection, schedule: Q04DX003 (sc), vehicle: saline) was 40 % of control.

With `CC(=O)OCC(=O)[C@@]12OC(C)(C)O[C@@H]1C[C@H]1[C@@H]3CC(C=O)=C4C=C(OCCCl)CC[C@]4(C)[C@@]3(F)[C@@H](O)C[C@@]12C` the T/C (dose: 25.0 mg/kg/injection, schedule: Q04DX003 (sc), vehicle: Klucel (hydroxypropylcellulose) (HPC)) was 79 % of control and the T/C (dose: 50.0 mg/kg/injection, schedule: Q04DX003 (sc), vehicle: Klucel (hydroxypropylcellulose) (HPC)) was 72 % of control.

For `CCCCCCCCC(C)C(=O)N1CCCC1C(=O)N1C(CC(=O)CC)CC(C)CC1C(=O)NC(C)C(=O)NC(C)(C)C(=O)NC(C)(C)C(=O)NC(C(=O)NC(C)C(=O)NC(C)(C)C(=O)NC(C)(C)C(=O)NC(C)CN(C)CCO)C(C)CC` (centres undefined) (X1-P[X2]A[Aib][Aib]IA[Aib][Aib]-X3; configuration not given here), the T/C (dose: 5.0 mg/kg/injection, schedule: Q04DX003 (sc), vehicle: Klucel (hydroxypropylcellulose) (HPC)) was 270 % of control.

With `O=c1n(CC2CO2)c(=O)n(CC2CO2)c(=O)n1CC1CO1` (centres undefined) the T/C [4] was 65 % of control, the T/C (dose: 25.0 mg/kg/injection, schedule: Q01DX010 (sc), vehicle: saline) was 56 % of control and the T/C (dose: 25.0 mg/kg/injection, schedule: Q04DX003 (sc), vehicle: saline with Tween-80) was 94 % of control. For the same compound, the T/C (dose: 50.0 mg/kg/injection, schedule: Q04DX003 (sc), vehicle: saline with Tween-80) was 100 % of control.

For `Cc1c2ccncc2c(C)c2c1[nH]c1ccccc12`, the T/C (dose: 6.25 mg/kg/injection, schedule: Q01DX010 (sc), vehicle: saline) was 24 % of control, the T/C [4] was 85 % of control and the T/C (dose: 50.0 mg/kg/injection, schedule: Q01DX010 (sc), vehicle: saline) was 72 % of control and 75 % of control. The T/C [5] was 59 % of control.

With `O=C1C=C[C@H](O)[C@@]2(CO)O[C@@H]12` the T/C (dose: 6.25 mg/kg/injection, schedule: Q04DX003 (sc), vehicle: saline with Tween-80) was 108 % of control and the T/C (dose: 12.5 mg/kg/injection, schedule: Q04DX003 (sc), vehicle: saline with Tween-80) was 77 % of control.

For `CNC=O`, the T/C [5] was 35 % of control, the T/C (dose: 200.0 mg/kg/injection, schedule: Q01DX010 (sc), vehicle: saline) was 7 % of control and 15 % of control and 21 % of control and the T/C (dose: 400.0 mg/kg/injection, schedule: Q01DX010 (sc), vehicle: saline) was 1 % of control and 2 % of control and 24 % of control. The T/C (dose: 1600.0 mg/kg/injection, schedule: Q01DX010 (sc), vehicle: saline) was 1 % of control.

In the case of `O=C(C/C(=N\C(=S)Nc1cc(C(F)(F)F)ccc1Cl)NO)N1CCCC1`, the T/C (dose: 300.0 mg/kg/injection, schedule: Q04DX003 (sc), vehicle: saline with Tween-80) is reported as 70 % of control, the T/C (dose: 600.0 mg/kg/injection, schedule: Q04DX003 (sc), vehicle: saline with Tween-80) is reported as 120 % of control and the T/C (dose: 1200.0 mg/kg/injection, schedule: Q04DX003 (sc), vehicle: saline with Tween-80) is reported as 104 % of control. For the same compound, the T/C (dose: 2400.0 mg/kg/injection, schedule: Q04DX003 (sc), vehicle: saline with Tween-80) was 106 % of control.

For `NC(=O)CC(N)C(=O)O` (centres undefined), the T/C (dose: 800.0 mg/kg/injection, schedule: Q04DX003 (sc), vehicle: saline) was 87 % of control, the T/C (dose: 1600.0 mg/kg/injection, schedule: Q04DX003 (sc), vehicle: saline) was 102 % of control and the T/C (dose: 3200.0 mg/kg/injection, schedule: Q04DX003 (sc), vehicle: saline) was 77 % of control.

With `O=c1oc2c(O)c(O)cc3c(=O)oc4c(O)c(O)cc1c4c23` the T/C (dose: 150.0 mg/kg/injection, schedule: Q04DX003 (sc), vehicle: Klucel (hydroxypropylcellulose) (HPC)) was 215 % of control, the T/C [1] was 86 % of control and the T/C [2] was 88 % of control. The T/C [3] was 81 % of control.

In the case of `CCCCCCCCCCCCCCCC(=O)OCC1OC(n2ccc(N)nc2=O)C(O)C1O` (centres undefined), the T/C (dose: 18.75 mg/kg/injection, schedule: Q04DX003 (sc), vehicle: saline with Tween-80) is reported as 55 % of control, the T/C (dose: 37.5 mg/kg/injection, schedule: Q04DX003 (sc), vehicle: saline with Tween-80) is reported as 43 % of control and 60 % of control and the T/C (dose: 200.0 mg/kg/injection, schedule: Q04DX003 (sc), vehicle: saline with Tween-80) is reported as 70 % of control.
